The subject of assay [1] is Nucleic Acid. Briefly: Duplex stability of RNA counter strand assessed as melting temperature. Format: nucleic-acid assay.
Assay [2] in a line: Antisense effect in human 607B cells assessed as down-regulation of bcl2 expression at 100 nM after 48 hrs by Western blot analysis relative to control. Type of assay: functional. (In general: A western blot detects proteins with antibodies after separation by electrophoresis.)
The test system of assay [3] is Nucleic Acid. The experiment in a line: Duplex stability of DNA counter strand assessed as melting temperature. Format: nucleic-acid assay.

The Tm is the temperature at the midpoint of the melting transition. For the compound `Cc1cn([C@H]2C[C@H](OP(O)(=S)OC[C@H]3O[C@@H](n4ccc(N)nc4=O)[C@H](O)[C@@H]3OP(O)(=S)OC[C@H]3O[C@@H](n4cc(C)c(=O)[nH]c4=O)C[C@@H]3O)[C@@H](COP(O)(=S)O[C@H]3[C@@H](O)[C@H](n4ccc(N)nc4=O)O[C@@H]3COP(O)(=S)O[C@H]3[C@@H](O)[C@H](n4ccc(N)nc4=O)O[C@@H]3COP(O)(=S)O[C@H]3[C@@H](O)[C@H](n4ccc(N)nc4=O)O[C@@H]3COP(O)(=S)O[C@H]3[C@@H](O)[C@H](n4cnc5c(N)ncnc54)O[C@@H]3COP(O)(=S)O[C@H]3[C@@H](O)[C@H](n4cnc5c(=O)[nH]c(N)nc54)O[C@@H]3COP(O)(=S)O[C@H]3[C@@H](O)[C@H](n4ccc(N)nc4=O)O[C@@H]3COP(O)(=S)O[C@H]3[C@@H](O)[C@H](n4cnc5c(=O)[nH]c(N)nc54)O[C@@H]3COP(O)(=S)O[C@H]3C[C@H](n4cc(C)c(=O)[nH]c4=O)O[C@@H]3COP(O)(=S)O[C@H]3[C@@H](O)[C@H](n4cnc5c(=O)[nH]c(N)nc54)O[C@@H]3COP(O)(=S)O[C@H]3[C@@H](O)[C@H](n4ccc(N)nc4=O)O[C@@H]3COP(O)(=S)O[C@H]3[C@@H](O)[C@H](n4cnc5c(=O)[nH]c(N)nc54)O[C@@H]3COP(O)(=S)O[C@H]3[C@@H](O)[C@H](n4ccc(N)nc4=O)O[C@@H]3COP(O)(=S)O[C@H]3[C@@H](O)[C@H](n4ccc(N)nc4=O)O[C@@H]3COP(O)(=S)O[C@H]3[C@@H](O)[C@H](n4cnc5c(N)ncnc54)O[C@@H]3COP(O)(=S)O[C@H]3[C@@H](NCCCNCCCCNCCCN)[C@H](n4ccc(=O)[nH]c4=O)O[C@@H]3CO)O2)c(=O)[nH]c1=O` (stereo partly specified), the Tm in the assay with Nucleic Acid [1] worked out at 53.5 °C; in the assay on Nucleic Acid [3], 68.5 °C. Moreover, the Activity in assay [2] stood at 19.4%.

Take `Cc1cn([C@H]2C[C@H](OP(O)(=S)OC[C@H]3O[C@@H](n4ccc(N)nc4=O)[C@H](O)[C@@H]3OP(O)(=S)OC[C@H]3O[C@@H](n4cc(C)c(=O)[nH]c4=O)C[C@@H]3O)[C@@H](COP(O)(=S)O[C@H]3[C@@H](O)[C@H](n4ccc(N)nc4=O)O[C@@H]3COP(O)(=S)O[C@H]3[C@@H](O)[C@H](n4ccc(N)nc4=O)O[C@@H]3COP(O)(=S)O[C@H]3[C@@H](O)[C@H](n4ccc(N)nc4=O)O[C@@H]3COP(O)(=S)O[C@H]3[C@@H](O)[C@H](n4cnc5c(N)ncnc54)O[C@@H]3COP(O)(=S)O[C@H]3[C@@H](O)[C@H](n4cnc5c(=O)[nH]c(N)nc54)O[C@@H]3COP(O)(=S)O[C@H]3[C@@H](O)[C@H](n4ccc(N)nc4=O)O[C@@H]3COP(O)(=S)O[C@H]3[C@@H](O)[C@H](n4cnc5c(=O)[nH]c(N)nc54)O[C@@H]3COP(O)(=S)O[C@H]3C[C@H](n4cc(C)c(=O)[nH]c4=O)O[C@@H]3COP(O)(=S)O[C@H]3[C@@H](O)[C@H](n4cnc5c(=O)[nH]c(N)nc54)O[C@@H]3COP(O)(=S)O[C@H]3[C@@H](O)[C@H](n4ccc(N)nc4=O)O[C@@H]3COP(O)(=S)O[C@H]3[C@@H](O)[C@H](n4cnc5c(=O)[nH]c(N)nc54)O[C@@H]3COP(O)(=S)O[C@H]3[C@@H](O)[C@H](n4ccc(N)nc4=O)O[C@@H]3COP(O)(=S)O[C@H]3[C@@H](O)[C@H](n4ccc(N)nc4=O)O[C@@H]3COP(O)(=S)O[C@H]3[C@@H](O)[C@H](n4cnc5c(N)ncnc54)O[C@@H]3COP(O)(=S)O[C@H]3[C@@H](NCCCNCCCCNCCCNCCCN)[C@H](n4ccc(=O)[nH]c4=O)O[C@@H]3CO)O2)c(=O)[nH]c1=O` (stereo partly specified): the midpoint of thermal melting (Tm) turned out to be 53.6 °C with Nucleic Acid [1] and 71.6 °C in the assay with Nucleic Acid [3]. In assay [2], the Activity turned out to be 18.5%.

The values are drawn from ChEMBL document CHEMBL1153884, “Oligonucleotide-polyamine conjugates: influence of length and position of 2'-attached polyamines on duplex stability and antisense effect” (2009).
